# Measured values: patent US20070128217A1 (priority 2003, published 2007)
# How the values were obtained:
# [1] = tested on: antibodies in sera from SARS patients (sera 1a, 1b, 2, 6, 37, 62, London, SARS-yellow, SARS-green); type: binding, human; design: Binding of serum 6 to linear peptides of protein X1 of SARS-CoV Urbani / Binding of serum 37 to linear peptides of protein X1 of SARS-CoV Urbani / Binding of serum 6 to looped/cyclic peptide (PEPSCAN-ELISA) / Binding of serum 37 to looped/cyclic peptide (PEPSCAN-ELISA) / Binding of serum 37 to looped/cyclic peptides of protein X1 of SARS-CoV Urbani / Binding of serum 6 to linear peptides of protein X2 / Binding of serum 37 to linear peptides of protein X2 / Binding of serum 37 to looped/cyclic peptides of protein X2 of SARS-CoV Urbani / Binding of serum 6 to linear peptides of protein M of SARS-CoV Urbani / Binding of serum 37 to linear peptides of protein M of SARS-CoV Urbani / Binding of serum 6 to looped/cyclic peptides of protein M of SARS-CoV Urbani / Binding of serum 37 to looped/cyclic peptides of protein M of SARS-CoV Urbani / Binding of serum 6 to linear peptides of protein X3 of SARS-CoV Urbani / Binding of serum 37 to linear peptides of protein X3 of SARS-CoV Urbani / Binding of serum 37 to looped/cyclic peptides of protein X3 of SARS-CoV Urbani / Binding of serum 6 to linear peptides of protein X4 of SARS-CoV Urbani / Binding of serum 37 to linear peptides of protein X4 of SARS-CoV Urbani / Binding of serum 37 to looped/cyclic peptides of protein X4 of SARS-CoV Urbani / Binding of serum 6 to linear peptides of protein X5 of SARS-CoV Urbani / Binding of serum 37 to linear peptides of protein X5 of SARS-CoV Urbani / Binding of serum 37 to looped/cyclic peptides of protein X5 of SARS-CoV Urbani / Binding of serum 6 to linear peptides of protein N of SARS-CoV Urbani / Binding of serum 37 to linear peptides of protein N of SARS-CoV Urbani / Binding of serum 6 to linear peptide (PEPSCAN-ELISA) / Binding of serum 1a to looped/cyclic peptides of protein N of SARS-CoV Urbani / Binding of serum 1b to looped/cyclic peptides of protein N of SARS-CoV Urbani / Binding of serum 2 to looped/cyclic peptides of protein N of SARS-CoV Urbani / Binding of serum 6 to looped/cyclic peptides of protein N of SARS-CoV Urbani / Binding of serum 37 to looped/cyclic peptides of protein N of SARS-CoV Urbani / Binding of serum 62 to looped/cyclic peptides of protein N of SARS-CoV Urbani / Binding of serum London to looped/cyclic peptides of protein N of SARS-CoV Urbani / Binding of serum SARS-green to looped/cyclic peptides of protein N of SARS-CoV Urbani: unit not given here
# [2] = tested on: control sera (pooled serum of ten healthy LUMC hospital workers; commercial negative donor pooled serum from the Dutch bloodbank); type: binding, human; design: Binding of Control serum LUMC to linear peptides / Binding of Control serum Blood-bank to linear peptides / Binding of Control serum LUMC to looped peptides / Binding of Control Serum Blood-Bank to Looped peptides / Binding of Control serum LUMC to linear peptides of the protein M of SARS-CoV Urbani / Binding of Control serum Blood-bank to linear peptides of the protein M of SARS-CoV Urbani / Binding of Control serum LUMC to looped peptides of the protein M of SARS-CoV Urbani / Binding of Control Serum Blood-Bank to Looped peptides of the protein M of SARS-CoV Urbani: unit not given here
# [3] = tested on: rabbit serum obtained by immunizing a rabbit with the SARS-CoV strain Frankfurt 1; type: binding; design: Binding of a rabbit serum to linear peptides / Binding of a rabbit serum to looped peptides / Rabbit serum linear peptides / Rabbit serum looped peptides / Binding of a rabbit serum to linear peptides of protein N of SARS-CoV Urbani (Rabbit serum linear peptides) / Binding of a rabbit serum to looped/cyclic peptides of protein N of SARS-CoV Urbani (Rabbit serum looped peptides): unit not given here
# [4] = tested on: recombinant human anti-SARS-CoV antibody 03-018; type: binding; design: Binding of antibody 03-018 to linear peptides of the N protein of SARS-CoV Urbani / Binding of antibody 03-018 to looped/cyclic peptides of the N protein of SARS-CoV Urbani: unit not given here
Sequence,Binding of serum 1a to linear peptides of protein N of SARS-CoV Urbani [1],Binding of serum 1a to looped/cyclic peptides of protein N of SARS-CoV Urbani [1],Binding of serum 1b to linear peptides of protein N of SARS-CoV Urbani [1],Binding of serum 1b to looped/cyclic peptides of protein N of SARS-CoV Urbani [1],Binding of serum 2 to linear peptides of protein N of SARS-CoV Urbani [1],Binding of serum 2 to looped/cyclic peptides of protein N of SARS-CoV Urbani [1],Binding of serum 6 to linear peptides of protein N of SARS-CoV Urbani [1],Binding of serum 6 to looped/cyclic peptides of protein N of SARS-CoV Urbani [1],Binding of serum 37 to linear peptides of protein N of SARS-CoV Urbani [1],Binding of serum 37 to looped/cyclic peptides of protein N of SARS-CoV Urbani [1],Binding of serum 62 to linear peptides of protein N of SARS-CoV Urbani [1],Binding of serum 62 to looped/cyclic peptides of protein N of SARS-CoV Urbani [1],Binding of serum London to linear peptides of protein N of SARS-CoV Urbani [1],Binding of serum London to looped/cyclic peptides of protein N of SARS-CoV Urbani [1],Binding of serum SARS-green to linear peptides of protein N of SARS-CoV Urbani [1],Binding of serum SARS-green to looped/cyclic peptides of protein N of SARS-CoV Urbani [1],Binding of serum SARS-yellow to linear peptides of protein N of SARS-CoV Urbani [1],Binding of serum SARS-yellow to looped/cyclic peptides of protein N of SARS-CoV Urbani [1],Binding of Control Serum Blood-Bank to Looped peptides [2],Binding of Control serum Blood-bank to linear peptides [2],also measured
NNNAATVLQLPQGTT,0.2,0.4,0.1,0.3,0.2,0.5,0.1,0.2,0.7,0.6,0.5,0.5,0.5,0.5,0.4,0.5,0.7,0.4,0.7,0.8,Binding of Control serum LUMC to linear peptides [2]: 0.7; Binding of Control serum LUMC to looped peptides [2]: 0.8; Binding of a rabbit serum to linear peptides of protein N of SARS-CoV Urbani (Rabbit serum linear peptides) [3]: 0.1; Binding of a rabbit serum to looped/cyclic peptides of protein N of SARS-CoV Urbani (Rabbit serum looped peptides) [3]: 0.4; Binding of antibody 03-018 to linear peptides of the N protein of SARS-CoV Urbani [4]: 0.1; Binding of antibody 03-018 to looped/cyclic peptides of the N protein of SARS-CoV Urbani [4]: 0.3
NNQNGGRNGARPKQR,0.2,0.2,0.2,0.1,0.2,0.2,0.3,0.2,0.7,0.4,0.8,0.3,0.5,0.3,0.5,0.1,0.6,0.3,0.5,0.9,Binding of Control serum LUMC to linear peptides [2]: 0.8; Binding of Control serum LUMC to looped peptides [2]: 0.6; Binding of a rabbit serum to linear peptides of protein N of SARS-CoV Urbani (Rabbit serum linear peptides) [3]: 0.3; Binding of a rabbit serum to looped/cyclic peptides of protein N of SARS-CoV Urbani (Rabbit serum looped peptides) [3]: 0.7; Binding of antibody 03-018 to linear peptides of the N protein of SARS-CoV Urbani [4]: 0.2; Binding of antibody 03-018 to looped/cyclic peptides of the N protein of SARS-CoV Urbani [4]: 0.2
